Test system: PC-3 multi-cell spheroids, viability
Assay: Anticancer human tumor PC-3 cell line growth inhibition [IpAb];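 further: spheroids exposed to compounds for 7 days before readout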;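 on viability, T/C: 100% = DMSO vehicle control wells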
Settings: for IC50: curve of first compound; for viability, T/C: stronger effect = lower value; active means viability on the fitted dose curve at most 10% of control; inactive means the rest
Source text: Combinatorial screen of targeted agents with ipatasertib and abemaciclib in multi-cell type tumor spheroids
A high-throughput screen of multi-cell type tumor spheroids was designed to identify active combinations of targeted small molecules and ipatasertib or abemaciclib. Complex spheroids include a stromal component modeled by human endothelial cells (HUVEC) and fibroblasts modeled by human mesenchymal stem cells (MSCs). The concentration ranges selected for each drug and investigational agent were based upon clinically achievable concentrations if the clinical Cmax of the agent was known.
Compounds. The drugs and investigational agents: ipatasertib (NSC767898), abemaciclib(NSC768073), selumetinib (NSC741078), trametinib (758246), adavosertib (NSC754352), everolimus (NSC733504), sapanisertib (NSC764658), vemurafenib (NSC761431), venetoclax (NSC766270), copanlisib (NSC809693), apelisib (NSC765974), palbociblib (NSC758247), vemurafenib (NSC761431), dabrafenib (NSC764134), ravoxertinib (NSC781343), BMS-387032 (NSC767048), sotorasib (NSC818433), talazoparib (NSC767125) and afursertib (NSC778305), were obtained from the National Cancer Institute (NCI) Developmental Therapeutics Program Chemical Repository. The FDA-approved anticancer drug set is available from the NCI Developmental Therapeutics Program. […] The stock solutions were prepared in dimethyl sulfoxide (DMSO, Sigma-Aldrich, St. Louis, MO, cat. D2650) at 800-fold the tested concentration and stored at -70 degrees C prior to their use. All drugs and investigational agents were tested over a range starting from a high concentration at or near the clinical Cmax and decreasing in half-log increments. If the clinical Cmax for an agent had not been determined, the highest concentration tested was 10 microM.
NCI60 Cell Culture. NCI60 cell lines were obtained from the NCI Developmental Therapeutics Program Tumor Repository. For each lot of cells, the Repository performed Applied Biosystems AmpFLSTR Identifiler testing with PCR amplification to confirm consistency with the published Identifier STR profile for each cell line. Cells were kept in continuous culture for no more than 20 passages. The optimal seeding densities for each of the cell lines at each time point assessed were determined prior to performing the concentration response studies. Briefly, the NCI60 human tumor lines were grown as monolayers in RPMI 1640 medium supplemented with 10% FBS and 2 mmol/L L-glutamine.
An additional 9 lines were from the NCI60 cell line panel including MDA-MB-231 breast carcinoma, MDA-MB-468 breast carcinoma, MCF7 breast carcinoma, Hs578T breast carcinoma, MALME-3M melanoma, SK-MEL-2 melanoma, SK-OV-3 ovarian carcinoma, DU-145 prostate carcinoma, PC-3 prostate carcinoma, all cell lines along with major genetic alterations are listed on Table 2. Pooled donor human umbilical vein endothelial cells (HUVEC, Lonza, cat. CC-2519) and human mesenchymal stem cells (hMSC, Lonza, cat. PT-2501) were purchased from Lonza (Walkersville, MD).
PDMR cell lines were grown in complete medium (DC medium): Dulbecco's modified Eagle's medium (DMEM)/F12 supplemented with 5% fetal bovine serum (FBS), 2 mM L-glutamine, 100 U/mL penicillin and 100 µg/ml streptomycin, 0.4 µg/ml hydrocortisone, 10 ng/ml epidermal growth factor (EGF) recombinant human protein, 24 µg/mL adenine, and 0.1 mg/mL primocin. During culture from frozen stock vials, PDMR cells were cultured in the same medium containing 10 µM Y-27632 (see Table 3). The PDCs were cultured in complete DMEM/F12 media without 10 microM Y-27632 dihydrochloride for at least two passages prior to the screen. The pooled donor HUVEC and hMSC were cultured in endothelial cell growth medium 2 (PromoCell, Heidelberg, Germany, cat. C-22011) and mesenchymal stem cell growth medium 2 (PromoCell, cat. C-28009), respectively. For all experiments, HUVEC and hMSC were used at passages </=5.
[…]

C=CCn1c(=O)c2cnc(Nc3ccc(N4CCN(C)CC4)cc3)nc2n1-c1cccc(C(C)(C)O)n1 + CC(C)NCC(C(=O)N1CCN(c2ncnc3c2C(C)CC3O)CC1)c1ccc(Cl)cc1
114 nM: IC50 (second compound 0.1 µM)
< 31.6 nM: IC50 (second compound 0.316 µM) | IC50 (second compound 1 µM) | IC50 (second compound 3.16 µM) | IC50 (second compound 10 µM)
inactive: viability, T/C (second compound 0.1 µM, first compound 0.0316 µM) 73.4% | viability, T/C (second compound 0.1 µM, first compound 0.1 µM) 48.6% | viability, T/C (second compound 0.1 µM, first compound 0.316 µM) 42.4% | viability, T/C (second compound 0.1 µM, first compound 1 µM) 20.5% | viability, T/C (second compound 0.1 µM, first compound 3.16 µM) 19.6% | viability, T/C (second compound 0.1 µM, first compound 10 µM) 21.1% | viability, T/C (second compound 0.316 µM, first compound 0.0316 µM) 41.3% | viability, T/C (second compound 0.316 µM, first compound 0.1 µM) 31.3% | viability, T/C (second compound 0.316 µM, first compound 0.316 µM) 15.4% | viability, T/C (second compound 0.316 µM, first compound 1 µM) 14.1% | viability, T/C (second compound 0.316 µM, first compound 3.16 µM) 13.8% | viability, T/C (second compound 0.316 µM, first compound 10 µM) 17.2% | viability, T/C (second compound 1 µM, first compound 0.0316 µM) 20.4% | viability, T/C (second compound 1 µM, first compound 0.1 µM) 16.2% | viability, T/C (second compound 1 µM, first compound 0.316 µM) 10.6% | viability, T/C (second compound 1 µM, first compound 1 µM) 9.67% | viability, T/C (second compound 1 µM, first compound 3.16 µM) 9.62% | viability, T/C (second compound 3.16 µM, first compound 0.0316 µM) 14.3% | viability, T/C (second compound 3.16 µM, first compound 0.1 µM) 11% | viability, T/C (second compound 10 µM, first compound 0.0316 µM) 13.1% | viability, T/C (second compound 10 µM, first compound 0.1 µM) 11.7%
active: viability, T/C (second compound 1 µM, first compound 10 µM) 11.5% | viability, T/C (second compound 3.16 µM, first compound 0.316 µM) 8.81% | viability, T/C (second compound 3.16 µM, first compound 1 µM) 7.7% | viability, T/C (second compound 3.16 µM, first compound 3.16 µM) 8.01% | viability, T/C (second compound 3.16 µM, first compound 10 µM) 7.89% | viability, T/C (second compound 10 µM, first compound 0.316 µM) 8.4% | viability, T/C (second compound 10 µM, first compound 1 µM) 6.86% | viability, T/C (second compound 10 µM, first compound 3.16 µM) 7.49% | viability, T/C (second compound 10 µM, first compound 10 µM) 7.22%

— PubChem BioAssay AID2060327 (Molecular Pharmacology Branch, DTP, NCI, 2025)
